# Measured values published in patent US10654896B2, “FoxP3-binding peptides and uses thereof” (FUNDACIÓN PARA LA INVESTIGACIÓN MÉDICA APLICADA, priority 2016, dated 2020).
# Where a SMILES comes first, the peptide text is derived from it. [ ]: non-standard residue; d: D form.
# System: murine Treg (CD25+ T cells)
# Assay: In vitro Treg suppression assay ([3H]-thymidine, anti-CD3)
# Format: cell-based, BALB/c mice
# Conditions: for IC50: read-out: IC50 (peptide concentration able to inhibit 50% of Treg activity)
# Protocol: Spleen was harvested from BALB/c mice (Harlan Laboratories) and homogenized with a 1-ml syringe through a 100-μm cell strainer into a 50-ml conical tube and rinsed two times with PBS (Calcium free) to recover all cells. Cell homogenate was centrifuged at 300×g for 10 min and resuspended homogenate in 1 ml ACK Lysis buffer solution per spleen. Gently swirled for 2 min and then the reaction was quenched by adding 12 ml of PBS.
# Cells were centrifuged at 300×g for 10 min and purification of CD25− and CD25+ cells was carried out using magnetic beads (Miltenyi, CD25 microbead kit MOUSE, Ref 130-091-072)), following manufacturer's instructions. After labelling the cells, they were purified using Automacs-Pro device following manufacturer's instructions. Negative fraction corresponded to CD25− cells, which was used as effector Tconv cells. Positive fraction corresponded to CD25+ T cells that was used as Treg cells. Flow cytometry using anti-CD25-APC labeled and anti-CD4-FITC labelled antibodies was used to confirm the purity of isolated cells. Foxp3 expression was analyzed using the anti-Foxp3 staining antibody labelled with APC according to manufacturer's instructions (eBioscience). Purified cells were washed, resuspended in culture medium and diluted in T-cell culture medium (RPMI 1640, supplemented with 10% Fetal bovine serum and antibiotics) at a concentration of 2×10^5/ml (for Tregs) and 2×10^6/ml (for Tconv), for the assay (See below)
# The first in vitro assays to measure regulatory T-cell (Treg) function were described by two groups over a decade ago. […] With this knowledge, it was shown that CD4+CD25+ T cells could potently suppress the proliferation of activated CD4+CD25− and CD8+ T cells when the populations were cocultured in vitro. The following protocol describes a basic type of in vitro Treg suppression assay where Treg function is measured in the absence of antigen-presenting cells (APCs). In this protocol, activation is mediated by anti-CD3 antibodies and includes only two cell types, the target Tconv and Tregs. In this protocol, the experiment is setup in a 96-well round-bottom plate in a total volume of 200 μl. All reagents are prepared at four times their desired final concentration and added to assay in 50 μl such that the total volume is 200 μl, thus obtaining the desired final concentration of reactives. Purified Tregs and Tconv prepared as described above were diluted and adjusted in T-cell culture medium to 2×10^5/ml and 2×10^6/ml, respectively. In round-bottom 96-well plate, Tregs and Tconv were added in 50 μl of culture media each (RPMI 1640, supplemented with 10% Fetal bovine serum, and antibiotics). Anti-CD3 antibody was added in 50 μl (final concentration will be 2.5 μg/ml) as a stimulus to induce T cell proliferation. 50 μL of each one of the peptides to be tested were added in the corresponding wells at a concentration of 100 μM and those which provided the best results were tested again at lower concentrations to determine the IC50 value. The final volume was 200 μl in all wells. Tconv alone, Tconv plus anti-CD3, Tconv+anti-CD3+ Treg or Tconv+anti-CD3+Treg+peptides were tested by quadruplicate. Tconv plus anti-CD3 with no Treg was used to determine maximum proliferation of Tconv whereas Tconv+anti-CD3+ Treg was used to determine Treg inhibition. Plates were incubated at 37° C., 5% CO2 for 72 h and then pulsed with 0.1 μCi [^3H]-thymidine (in 25 μl of culture medium per well). After 8 h of incubation, cell cultures were harvested with a cell harvester (Perkin Elmer) and using unifilter plates. Plates were then dried at 50° C., and scintillation reagent (25 μl)(Microscint, Perkin Elmer) was added to each well. Counts per minute (cpm) were determined with a direct beta counter (TopCount, Perkin Elmer).
# The results of in vitro Treg suppression assays are most commonly reported as cpm when [^3H]-thymidine is incorporated into proliferating cells. […]
Molecule,IC50,Treg inhibition - % inhibition (100 μM) (peptide 100 μM)
CSCC[C@H](NC(=O)[C@H](C)NC(=O)[C@H](Cc1ccccc1)NC(=O)[C@H](Cc1ccccc1)NC(=O)[C@@H]1CCCN1C(=O)[C@H](Cc1c[nH]c2ccccc12)NC(=O)[C@H](CCSC)NC(=O)[C@H](CCCCN)NC(=O)[C@H](CCCNC(=N)N)NC(=O)[C@H](Cc1ccccc1)NC(=O)[C@H](CO)NC(=O)[C@H](CCC(N)=O)NC(=O)[C@H](Cc1ccccc1)NC(=O)[C@@H](CC(=O)O)NC(=O)[C@@H](N)CCCNC(=N)N)C(=O)O [compound 3] (H-R[dD]FQSFRKMWPFFAM-OH),27.2 µM,
CSCC[C@H](NC(=O)[C@H](C)NC(=O)[C@H](Cc1ccccc1)NC(=O)[C@H](Cc1ccccc1)NC(=O)[C@@H]1CCCN1C(=O)[C@H](Cc1c[nH]c2ccccc12)NC(=O)[C@H](CCSC)NC(=O)[C@H](CCCCN)NC(=O)[C@H](CCCNC(=N)N)NC(=O)[C@H](Cc1ccccc1)NC(=O)[C@H](CO)NC(=O)[C@H](CCC(N)=O)NC(=O)[C@H](Cc1ccccc1)NC(=O)[C@H](C)NC(=O)[C@H](N)CCCNC(=N)N)C(=O)O [compound 46] (H-[dR]AFQSFRKMWPFFAM-OH; N-terminus and C-terminus assumed),12.5 µM,
CSCC[C@H](NC(=O)[C@H](CCCCN)NC(=O)[C@H](CCCNC(=N)N)NC(=O)[C@H](Cc1ccccc1)NC(=O)[C@H](CO)NC(=O)[C@H](CCC(N)=O)NC(=O)[C@H](Cc1ccccc1)NC(=O)[C@H](C)NC(=O)[C@@H](N)CCCNC(=N)N)C(=O)N[C@@H](Cc1c[nH]c2ccccc12)C(=O)N1CCC[C@H]1C(=O)N[C@@H](Cc1ccccc1)C(=O)N[C@@H](Cc1ccccc1)C(=O)N[C@@H](C)C(=O)N[C@H](CCSC)C(=O)O [compound 47] (H-RAFQSFRKMWPFFA[dM]-OH; N-terminus and C-terminus assumed),35 µM,
CSCC[C@H](NC(=O)[C@H](CCCCN)NC(=O)[C@H](CCCNC(=N)N)NC(=O)[C@H](Cc1ccccc1)NC(=O)[C@H](CO)NC(=O)[C@H](CCC(N)=O)NC(=O)[C@H](Cc1ccccc1)NC(=O)[C@H](C)NC(=O)[C@H](N)CCCNC(=N)N)C(=O)N[C@@H](Cc1c[nH]c2ccccc12)C(=O)N1CCC[C@H]1C(=O)N[C@@H](Cc1ccccc1)C(=O)N[C@@H](Cc1ccccc1)C(=O)N[C@@H](C)C(=O)N[C@H](CCSC)C(=O)O [compound 48] (H-[dR]AFQSFRKMWPFFA[dM]-OH; N-terminus and C-terminus assumed),20 µM,
CSCC[C@@H]1NC(=O)[C@H](C)NC(=O)[C@H](Cc2ccccc2)NC(=O)[C@H](Cc2ccccc2)NC(=O)[C@@H]2CCCN2C(=O)[C@H](Cc2c[nH]c3ccccc23)NC(=O)[C@H](CCSC)NC(=O)[C@H](CCCCN)NC(=O)[C@H](CCCNC(=N)N)NC(=O)[C@H](Cc2ccccc2)NC(=O)[C@H](C)NC(=O)[C@H](CCC(N)=O)NC(=O)[C@H](Cc2ccccc2)NC(=O)[C@H](C)NC(=O)[C@H](CCCNC(=N)N)NC1=O [compound 50] (cyclo(RAFQAFRKMWPFFAM)),0.8 µM,
H-RDFQSFRKMWPFFAM-OH [compound 1],38.3 µM,115.6%
